Activity calls are given as the source filed them.
Legend:
CCRF-CEM [1] = assay: Potentiation of prima1-induced antileukemic activity against human CCRF-CEM cells at 4.3 uM in presence of bone-marrow derived stromal cell-conditioned medium; assay type: functional, cell-based
U-937 [2] = assay: Potentiation of seliciclib-induced antileukemic activity against human U-937 cells at 4.3 uM in presence of bone-marrow derived stromal cell-conditioned medium; assay type: functional, cell-based
MOLM-14 [3] = assay: Potentiation of erlotinib-induced antileukemic activity against human MOLM-14 cells at 4.3 uM in presence of bone-marrow derived stromal cell-conditioned medium; assay type: functional, cell-based
CCRF-CEM [4] = assay: Potentiation of AGI-5198-induced antileukemic activity against human CCRF-CEM cells at 4.3 uM in presence of bone-marrow derived stromal cell-conditioned medium; assay type: functional, cell-based
U-937 [5] = assay: Potentiation of GSK126-induced antileukemic activity against human U-937 cells at 4.3 uM in presence of bone-marrow derived stromal cell-conditioned medium; assay type: functional, cell-based
U-937 [6] = assay: Potentiation of erlotinib-induced antileukemic activity against human U-937 cells at 4.3 uM in presence of bone-marrow derived stromal cell-conditioned medium; assay type: functional, cell-based
CCRF-CEM [7] = assay: Potentiation of selinexor-induced antileukemic activity against human CCRF-CEM cells at 4.3 uM in presence of bone-marrow derived stromal cell-conditioned medium; assay type: functional, cell-based
CCRF-CEM [8] = assay: Potentiation of idasanutlin-induced antileukemic activity against human CCRF-CEM cells at 4.3 uM in presence of bone-marrow derived stromal cell-conditioned medium; assay type: functional, cell-based
U-937 [9] = assay: Potentiation of temsirolimus-induced antileukemic activity against human U-937 cells at 4.3 uM in presence of bone-marrow derived stromal cell-conditioned medium; assay type: functional, cell-based
MOLM-14 [10] = assay: Potentiation of AraC-induced antileukemic activity against human MOLM-14 cells at 4.3 uM in presence of bone-marrow derived stromal cell-conditioned medium; assay type: functional, cell-based
U-937 [11] = assay: Potentiation of dexamethasone-induced antileukemic activity against human U-937 cells at 4.3 uM in presence of bone-marrow derived stromal cell-conditioned medium; assay type: functional, cell-based
CCRF-CEM [12] = assay: Potentiation of AG-221-induced antileukemic activity against human CCRF-CEM cells at 4.3 uM in presence of bone-marrow derived stromal cell-conditioned medium; assay type: functional, cell-based
U-937 [13] = assay: Potentiation of VX680-induced antileukemic activity against human U-937 cells at 4.3 uM in presence of bone-marrow derived stromal cell-conditioned medium; assay type: functional, cell-based
U-937 [14] = assay: Potentiation of AGI-5198-induced antileukemic activity against human U-937 cells at 4.3 uM in presence of bone-marrow derived stromal cell-conditioned medium; assay type: functional, cell-based
MOLM-14 [15] = assay: Potentiation of ponatinib-induced antileukemic activity against human MOLM-14 cells at 4.3 uM in presence of bone-marrow derived stromal cell-conditioned medium; assay type: functional, cell-based
MOLM-14 [16] = assay: Potentiation of imatinib-induced antileukemic activity against human MOLM-14 cells at 4.3 uM in presence of bone-marrow derived stromal cell-conditioned medium; assay type: functional, cell-based
[17] = target: Bromodomain-containing protein 4 (Homo sapiens, UniProt O60885); assay: Inhibition of BRD4-BD2 (unknown origin) incubated for 6 hrs by HTRF method
MOLM-14 [18] = assay: Potentiation of carfilzomib-induced antileukemic activity against human MOLM-14 cells at 4.3 uM in presence of bone-marrow derived stromal cell-conditioned medium; assay type: functional, cell-based
CCRF-CEM [19] = assay: Potentiation of topotecan-induced antileukemic activity against human CCRF-CEM cells at 4.3 uM in presence of bone-marrow derived stromal cell-conditioned medium; assay type: functional, cell-based
MOLM-14 [20] = assay: Potentiation of -mastinib -induced antileukemic activity against human MOLM-14 cells at 4.3 uM in presence of bone-marrow derived stromal cell-conditioned medium; assay type: functional, cell-based
MOLM-14 [21] = assay: Potentiation of afatinib-induced antileukemic activity against human MOLM-14 cells at 4.3 uM in presence of bone-marrow derived stromal cell-conditioned medium; assay type: functional, cell-based
CCRF-CEM [22] = assay: Potentiation of dexamethasone-induced antileukemic activity against human CCRF-CEM cells at 4.3 uM in presence of bone-marrow derived stromal cell-conditioned medium; assay type: functional, cell-based
U-937 [23] = assay: Potentiation of clofarabine-induced antileukemic activity against human U-937 cells at 4.3 uM in presence of bone-marrow derived stromal cell-conditioned medium; assay type: functional, cell-based
CCRF-CEM [24] = assay: Potentiation of bosutinib-induced antileukemic activity against human CCRF-CEM cells at 4.3 uM in presence of bone-marrow derived stromal cell-conditioned medium; assay type: functional, cell-based
MOLM-14 [25] = assay: Potentiation of arsenic-induced antileukemic activity against human MOLM-14 cells at 4.3 uM in presence of bone-marrow derived stromal cell-conditioned medium; assay type: functional, cell-based
U-937 [26] = assay: Potentiation of gileritinib-induced antileukemic activity against human U-937 cells at 4.3 uM in presence of bone-marrow derived stromal cell-conditioned medium; assay type: functional, cell-based
U-937 [27] = assay: Potentiation of 17AAG-induced antileukemic activity against human U-937 cells at 4.3 uM in presence of bone-marrow derived stromal cell-conditioned medium; assay type: functional, cell-based
[28] = target: Bromodomain-containing protein 3 (Homo sapiens, UniProt Q15059); assay: Inhibition of human partial length BRD3-BD2 (G306 to P416 residues) expressed in bacterial system at 1 uM by BROMOscan method relative to control
U-937 [29] = assay: Potentiation of midostaurin-induced antileukemic activity against human U-937 cells at 4.3 uM in presence of bone-marrow derived stromal cell-conditioned medium; assay type: functional, cell-based
CCRF-CEM [30] = assay: Potentiation of gileritinib-induced antileukemic activity against human CCRF-CEM cells at 4.3 uM in presence of bone-marrow derived stromal cell-conditioned medium; assay type: functional, cell-based
MOLM-14 [31] = assay: Potentiation of everolimus-induced antileukemic activity against human MOLM-14 cells at 4.3 uM in presence of bone-marrow derived stromal cell-conditioned medium; assay type: functional, cell-based
MOLM-14 [32] = assay: Potentiation of niotinib-induced antileukemic activity against human MOLM-14 cells at 4.3 uM in presence of bone-marrow derived stromal cell-conditioned medium; assay type: functional, cell-based
U-937 [33] = assay: Potentiation of vorinostat-induced antileukemic activity against human U-937 cells at 4.3 uM in presence of bone-marrow derived stromal cell-conditioned medium; assay type: functional, cell-based
CCRF-CEM [34] = assay: Potentiation of vincristine-induced antileukemic activity against human CCRF-CEM cells at 4.3 uM in presence of bone-marrow derived stromal cell-conditioned medium; assay type: functional, cell-based
CCRF-CEM [35] = assay: Potentiation of arsenic-induced antileukemic activity against human CCRF-CEM cells at 4.3 uM in presence of bone-marrow derived stromal cell-conditioned medium; assay type: functional, cell-based
CCRF-CEM [36] = assay: Potentiation of idarubicin-induced antileukemic activity against human CCRF-CEM cells at 4.3 uM in presence of bone-marrow derived stromal cell-conditioned medium; assay type: functional, cell-based
MOLM-14 [37] = assay: Potentiation of sorafenib-induced antileukemic activity against human MOLM-14 cells at 4.3 uM in presence of bone-marrow derived stromal cell-conditioned medium; assay type: functional, cell-based
U-937 [38] = assay: Potentiation of gefitinib-induced antileukemic activity against human U-937 cells at 4.3 uM in presence of bone-marrow derived stromal cell-conditioned medium; assay type: functional, cell-based
CCRF-CEM [39] = assay: Potentiation of imatinib-induced antileukemic activity against human CCRF-CEM cells at 4.3 uM in presence of bone-marrow derived stromal cell-conditioned medium; assay type: functional, cell-based
MOLM-14 [40] = assay: Potentiation of clofarabine-induced antileukemic activity against human MOLM-14 cells at 4.3 uM in presence of bone-marrow derived stromal cell-conditioned medium; assay type: functional, cell-based
MOLM-14 [41] = assay: Potentiation of topotecan-induced antileukemic activity against human MOLM-14 cells at 4.3 uM in presence of bone-marrow derived stromal cell-conditioned medium; assay type: functional, cell-based

Chain of Bromodomain-containing protein 3 (Q15059 2-726 limits assumed): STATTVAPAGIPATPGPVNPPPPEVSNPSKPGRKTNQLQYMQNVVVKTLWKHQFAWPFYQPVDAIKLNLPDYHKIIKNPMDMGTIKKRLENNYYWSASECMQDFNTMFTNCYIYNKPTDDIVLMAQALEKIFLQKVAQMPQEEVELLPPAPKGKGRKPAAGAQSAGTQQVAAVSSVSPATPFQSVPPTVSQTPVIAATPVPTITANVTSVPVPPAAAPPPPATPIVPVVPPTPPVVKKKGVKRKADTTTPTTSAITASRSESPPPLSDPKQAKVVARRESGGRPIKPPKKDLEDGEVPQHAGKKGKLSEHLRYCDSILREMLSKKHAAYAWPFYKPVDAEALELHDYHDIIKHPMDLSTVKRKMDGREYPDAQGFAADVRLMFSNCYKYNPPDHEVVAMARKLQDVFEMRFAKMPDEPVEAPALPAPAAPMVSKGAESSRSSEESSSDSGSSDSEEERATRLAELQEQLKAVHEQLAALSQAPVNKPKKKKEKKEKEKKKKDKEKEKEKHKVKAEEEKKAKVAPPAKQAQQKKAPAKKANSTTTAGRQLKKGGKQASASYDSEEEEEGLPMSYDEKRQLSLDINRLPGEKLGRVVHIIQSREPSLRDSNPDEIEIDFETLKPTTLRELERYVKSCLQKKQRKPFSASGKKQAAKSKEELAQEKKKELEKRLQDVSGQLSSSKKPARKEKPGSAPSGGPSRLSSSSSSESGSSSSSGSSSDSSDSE

CC(=O)N1CCc2c(sc3nc(SCC(=O)Nc4cccnc4C)n(Cc4ccco4)c(=O)c23)C1
36%: inhibition [28]
inactive: Activity (CCRF-CEM [1]) | Activity (U-937 [2]) | Activity (MOLM-14 [3]) | Activity (CCRF-CEM [4]) | Activity (U-937 [5]) | Activity (U-937 [6]) | Activity (CCRF-CEM [7]) | Activity (CCRF-CEM [8]) | Activity (U-937 [9]) | Activity (MOLM-14 [10]) | Activity (U-937 [11]) | Activity (CCRF-CEM [12]) | Activity (U-937 [13]) | Activity (U-937 [14]) | Activity (MOLM-14 [15]) | Activity (MOLM-14 [16]) | Activity (MOLM-14 [18]) | Activity (CCRF-CEM [19]) | Activity (MOLM-14 [20]) | Activity (MOLM-14 [21]) | Activity (CCRF-CEM [22]) | Activity (U-937 [23]) | Activity (CCRF-CEM [24]) | Activity (MOLM-14 [25]) | Activity (U-937 [26]) | Activity (U-937 [27]) | Activity (U-937 [29]) | Activity (CCRF-CEM [30]) | Activity (MOLM-14 [31]) | Activity (MOLM-14 [32]) | Activity (U-937 [33]) | Activity (CCRF-CEM [34]) | Activity (CCRF-CEM [35]) | Activity (CCRF-CEM [36]) | Activity (MOLM-14 [37]) | Activity (U-937 [38]) | Activity (CCRF-CEM [39]) | Activity (MOLM-14 [40]) | Activity (MOLM-14 [41])
130 nM: IC50 [17]

— ChEMBL document CHEMBL5046315, “CRCM5484: A BET-BDII Selective Compound with Differential Anti-leukemic Drug Modulation” (J Med Chem, 2022)
